Data published in patent EP0475231A1, “Benzodiazepines” (priority 1990, dated 1992).
Like-named read-outs stand apart in the source and are kept apart here.

Legend:
HIV-TAT = test: anti-HIV-TAT assay: SeAP reporter under HIV-LTR versus RSV-LTR in transfected COS cells; assay type: cell-based; settings: 1-50 µM, specific inhibition of SeAP under HIV-LTR minus RSV-LTR, 48 hours after addition, average of at least three tests, grades not defined
Method: The compounds of formula I were also tested for anti-HIV-TAT activity in an assay comprising the following steps: • (a) putting both the expression of the Secreted Alkaline Phosphatase (SeAP) gene and the viral transactivator TAT gene under the control of the HIV promoter LTR responsive to the action of the HIV transactivator TAT; • (b) transfecting cultured mammalian cells with plasmids which contain the gene constructs of (a) above and cause cellular production of the transactivating factor TAT and SeAP; • (c) adding the agent to be tested, here the compounds of formula I; and determining the amount of SeAP produced, by measuring SeAP enzymatic activity, whereby inhibition of SeAP production correlates with the anti-TAT inhibition activity.
In this assay, the inhibition of SeAP positively correlates with anti-TAT activity. The greater the ability of an agent to inhibit SeAP, the greater is its anti-TAT activity.
Specifically, with respect to the results reported below, the anti-HIV-TAT assay was run as follows:
At 24 hours post transfection 1, 10, 25 and 50 µM of a test compound of formula I was added to the culture media of COS cells transfected with two plasmids, one containing the reporter gene which codes for SeAP under control of HIV-LTR, and the other containing the HIV-TAT gene also under control of HIV-LTR. The alkaline phosphatase activity of the media was assayed 48 hours after addition of test compound with a colorimetric assay using p-nitrophenylphosphate as the substrate.
The anti-HIV-TAT activities of the test compounds were determined by measuring the amount of alkaline phosphatase in the supernatant media of cultures of cells in which SeAP gene expression was under the control of the HIV LTR promoter. The specific inhibitory activities of the test compounds were calculated according to the formula: 100[(1-A/B)-(1-C/D)] [formula] where A and B are the alkaline phosphatase activites produced by HIV-LTR/SeAP in the presence and absence, respectively, of test compound, and C and D are the alkaline phosphatase activities produced by RSV-LTR/SeAP in the presence and absence, respectively, of test compound. The concentrations tested ranged from 1-50 µM. The results provided are the average of at least three tests. The test compound was added 24 hours after cells were transfected with the plasmids when SeAP specific mRNA and protein were already present and the protein was very stable. […]

HIV-1 NIT strain = test: anti-HIV activity test: reduction of immuno-fluorescent positive (viral antigen) cells in infected CD4+ CEM cells; assay type: cell-based; settings: Human immunodeficiency virus 1, CCRF-CEM, 96 h, concentration which reduces the number of immuno-fluorescent positive cells by 50%, MOI 1, four days after infection, read-out: IC₅₀
Method: The compounds I were tested for the inhibition of HIV-cytopathic effect and the reduction of cell-associated viral antigens in an experiment run as follows:
High titer virus stocks (HIV-1 NIT strain) were grown in CD₄+ CR10 cells in RMPI-1640 media (Gibco Laboratories) supplemented with 10% fetal calf serum and 0.1 mg/ml Gentamicin. The collected media were filtered and the virus isolates were concentrated 100 fold and stored at -80°C. CD₄+ CEM cells, propagated in the same medium, were incubated for 60 minutes at 37°C with diluted stock virus at multiplicity of infection (MOI) equal to 1. Cells were washed with phosphate buffered saline and resuspended in the medium at 2 x 10⁵ cells/ml. Various quantities of the test compounds in DMSO were added. Four days after infection, the number of live cells were counted by trypan blue exclusion (Proc. Natl. Acad. Sci. 83, 1986, 1911). At the same time, aliquots of cells were fixed with acetone and stained with antibodies from AIDS patients, followed by a second staining with fluorescein-conjugated goat anti-human IgG (Cappel). Cells stained with the fluorescent antibody were counted using a fluorescence microscope and the results were expressed as percentage of the total number of cells counted (J. Med. Virol. 19, 1986, 325).
The results of this anti-HIV activity test, expressed in IC₅₀ (µM), i.e. the concentration of the test compound which reduces the number of immuno-fluorescent positive cells by 50%, are given in Table I below.

HIV-1 RT = biological target: T1, HIV-1 RT (Human immunodeficiency virus type 1 group M subtype B, UniProt P03366); test: HIV-1 RT inhibition with recombinant DNA-derived enzyme, poly(rA)·oligo(dT)10 template/primer, 3H-TTP incorporation; assay type: biochemical
T1 construct: made in house
Method: Compounds of the present invention were also examined for their ability to inhibit HIV-1 RT using recombinant DNA-derived enzyme (S.F.J. Le Grice and F. Gruninger-Leitch, European Journal of Biochemistry 187:307-314 (1990)) in […] volume assay mixtures. Mixtures contained 50mM Tris-HCl (pH 8.0), 25mM KCl, 4mM MgCl₂, 5mM dithiothreitol (DTT), 0.05% Triton X-100, […] ³H-TTP (2Ci/mmol), 1mg poly(rA)·oligo(dT)₁₀ (20:1) as template/primer, test compound at the desired concentration, and an appropriate quantity of HIV RT, usually 0.01 to 0.1mg. The assay mixtures were incubated at 37°C for 10 minutes and the reactions were stopped by the addition of 10% trichloroacetic acid (TCA). Yeast RNA ([…] per reaction) was added and the reaction products were precipitated at 4°C for 30 minutes. TCA-precipitated material was collected by filtration and the bound radioactivity determined by counting using a liquid scintillation counter. The concentration of compound required to inhibit the activity of HIV-RT by fifty percent (IC₅₀) was determined from a multiple dose-effect analysis program (J. Chou and I. C. Chou, Dose Effect Analysis with Microcomputers, Elsevier Sciences Publishers, Amsterdam 1987).

[1] = recombinant HIV-1 RT, 37°C, 10 minutes, read-out: IC₅₀

| Structure (SMILES) | Anti-HIV-TAT activity (HIV-TAT) | IC50 (HIV-1 NIT strain) [µM] | IC50 (HIV-1 RT; [1]) [µM] | IC50 (HIV-1 RT) [µM] |
| --- | --- | --- | --- | --- |
| OC1CCN(C2=Nc3ccc(Cl)cc3C(c3ccc[nH]3)=NC2)C1 (racemic) [3-OH-1-pyrrolidinyl, rac-1-[7-chloro-5-(1H-pyrrol-2-yl)-3H-1,4-benzodiazepin-2-yl]-3-pyrrolidinol] | High | 1 to 5 | 6.4 |  |
| Clc1ccc2c(c1)C(c1ccc[nH]1)=NCC(N1CCNCC1)=N2 [1-piperazinyl, 7-chloro-2-(1-piperazinyl)-5-(1H-pyrrol-2-yl)-3H-1,4-benzodiazepine] | Low |  | 18 |  |
| Clc1ccc2c(c1)C(c1ccc[nH]1)=NCC(N1CCCCC1)=N2 [1-piperidinyl, 7-chloro-2-(1-piperidinyl)-5-(1H-pyrrol-2-yl)-3H-1,4-benzodiazepine] | Medium/High | 2 | 10.4 |  |
| Clc1ccc2c(c1)C(c1ccc[nH]1)=NCC(N1CCCC1)=N2 [1-pyrrolidinyl, 7-chloro-5-(1H-pyrrol-2-yl)-2-(1-pyrrolidinyl)-3H-1,4-benzodiazepine] | Medium/High | 0.8 to 5 | 10.2 |  |
| CCN(CC)C1=Nc2ccc(Cl)cc2C(c2ccc[nH]2)=NC1 [N(CH₂CH₃)₂, 7-chloro-N,N-diethyl-5-(1H-pyrrol-2-yl)-3H-1,4-benzodiazepin-2-amine] | Low/Medium |  |  |  |
| CN(C)C1=Nc2ccc(Cl)cc2C(c2ccc[nH]2)=NC1 [N(CH₃)₂, 7-chloro-N,N-dimethyl-5-(1H-pyrrol-2-yl)-3H-1,4-benzodiazepin-2-amine] | Medium/High | 1 to 3 |  | 7.3 |
| Clc1ccc2c(c1)C(c1ccc[nH]1)=NCC(NC1CC1)=N2 [NH(cyclopropyl), 7-chloro-N-cyclopropyl-5-(1H-pyrrol-2-yl)-3H-1,4-benzodiazepin-2-amine] | Medium | 0.8 |  | 5.4 |
| COC(CNC1=Nc2ccc(Cl)cc2C(c2ccc[nH]2)=NC1)OC [NHCH₂CH(OCH₃)₂, 7-chloro-N-(2,2-dimethoxyethyl)-5-(1H-pyrrol-2-yl)-3H-1,4-benzodiazepin-2-amine] | Medium/High | 1 to 5 |  |  |
| C=CCNC1=Nc2ccc(Cl)cc2C(c2ccc[nH]2)=NC1 [NHCH₂CH=CH₂, 7-chloro-N-(2-propenyl)-5-(1H-pyrrol-2-yl)-3H-1,4-benzodiazepin-2-amine] | Low |  |  | 4.2 |
| NCCNC1=Nc2ccc(Cl)cc2C(c2ccc[nH]2)=NC1 [NHCH₂CH₂NH₂, N-[7-chloro-5-(1H-pyrrol-2-yl)-3H-1,4-benzodiazepin-2-yl]-1,2-ethanediamine] | Medium |  |  |  |
| OCCNC1=Nc2ccc(Cl)cc2C(c2ccc[nH]2)=NC1 [NHCH₂CH₂OH, 7-chloro-N-(2-hydroxyethyl)-5-(1H-pyrrol-2-yl)-3H-1,4-benzodiazepin-2-amine] | Medium | 2 to 5 |  | 8.9 |
| C#CCNC1=Nc2ccc(Cl)cc2C(c2ccc[nH]2)=NC1 [NHCH₂C≡CH, 7-chloro-N-(2-propynyl)-5-(1H-pyrrol-2-yl)-3H-1,4-benzodiazepin-2-amine] |  |  |  | 2 |
| Clc1ccc2c(c1)C(c1ccc[nH]1)=NCC(NCc1ccccc1)=N2 [NHCH₂Ph, 7-chloro-N-(phenylmethyl)-5-(1H-pyrrol-2-yl)-3H-1,4-benzodiazepin-2-amine] | Low/Medium | 3 |  | 2.6 |
| NNC1=Nc2ccc(Cl)cc2C(c2ccc[nH]2)=NC1 [NHNH₂, 7-chloro-2-hydrazino-5-(1H-pyrrol-2-yl)-3H-1,4-benzodiazepine] | High | 1 |  |  |
| Clc1ccc2c(c1)C(c1ccc[nH]1)=NCC(Nc1ccccc1)=N2 [NHPh, 7-chloro-N-phenyl-5-(1H-pyrrol-2-yl)-3H-1,4-benzodiazepin-2-amine] |  |  |  | 15.8 |
| COC1=Nc2ccc(Cl)cc2C(c2ccc[nH]2)=NC1 [OCH₃, 7-chloro-2-methoxy-5-(1H-pyrrol-2-yl)-3H-1,4-benzodiazepine] | Medium | 1 |  | 1.5 |
| CSC1=Nc2ccc(Cl)cc2C(c2ccc[nH]2)=NC1 [SCH₃, 7-chloro-2-(methylthio)-5-(1H-pyrrol-2-yl)-3H-1,4-benzodiazepine] | Low/Medium | 5 to 10 |  | 1.6 |
